Article PMC11187126, “Structure and dynamics of the pyroglutamylated RF-amide peptide QRFP receptor GPR103” (Nature Communications, 2024)
No end group written: not given here.

Target: T1, GPR103 C98^2.57A (Homo sapiens, UniProt Q96P65, C98A)
T1 construct: we used human full-length QRFPR-encoding plasmids; expressed in transfected cells; host or cells: HEK293 cells, pCAGGS vector
T1 sequence (Q96P65 1-431 C98A): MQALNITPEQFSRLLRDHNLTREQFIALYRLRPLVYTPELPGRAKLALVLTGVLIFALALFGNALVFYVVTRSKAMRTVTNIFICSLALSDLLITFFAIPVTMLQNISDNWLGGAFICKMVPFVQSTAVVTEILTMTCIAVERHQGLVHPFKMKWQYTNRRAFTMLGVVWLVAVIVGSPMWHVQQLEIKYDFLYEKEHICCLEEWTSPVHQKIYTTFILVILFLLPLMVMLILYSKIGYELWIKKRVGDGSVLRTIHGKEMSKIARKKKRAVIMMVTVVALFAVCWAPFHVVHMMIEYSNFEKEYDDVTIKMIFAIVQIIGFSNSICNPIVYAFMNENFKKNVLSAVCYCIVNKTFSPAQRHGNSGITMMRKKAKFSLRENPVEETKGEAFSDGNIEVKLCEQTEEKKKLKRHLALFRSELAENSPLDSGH
Test: TGFα shedding assay; Exp. level WT (1:50)
Type: cell-based

Emax (mean): 86%
EC50 (n = 3): 72.4 nM
Emax (n = 3): 88.3 ± 3.6%
Substance: TSGPLGNLAEELNGYSRKKGGFSFRF-NH2 [QRFP26]
